Measurements: patent publication US11771738B2 (Zoetis Services LLC, priority 2018, dated 2023)
Like-named read-outs stand apart in the source and are kept apart here.

Columns and labels:
Type in all cases: cell-based
[1] = test system: third stage larvae of Haemonchus contortus; assay: Haemonchus contortus, Larvae Stage 3 (HcL3) In Vitro Assay; settings: for minimal effective concentration: Haemonchus contortus, 96 h
[2] = test system: D. immitis L4 larvae; assay: Dirofilaria immitis, L4 Stage (DiL4) In Vitro Assay; settings: for DiMf/DiL4: larval stage selectivity, ratio of DiMf MED to DiL4 MED; for minimal effective concentration: Dirofilaria immitis, 72 h, read-out: DiL4 MED, Minimum Effective Dose, D. immitis L4 larvae motility, in vitro
[3] = test system: microfilariae of Dirofilaria immitis; assay: Dirofilaria immitis, Microfilaria (DiMf) In Vitro Assay; settings: Dirofilaria immitis, 72 h, read-out: DiMf MED, Minimum Effective Dose, D. immitis microfilariae motility, in vitro
[4] = read-out: HcL3 MED (symbol after Ex#), approximately 96 hours incubation, multiple-resistant field isolate
[5] = read-out: HcL3 MED, Minimum Effective Dose, H. contortus third stage larvae, approximately 96 hours
[6] = read-out: HcL3 MED, approximately 96 hours incubation, multiple-resistant field isolate
[7] = read-out: HcL3 MED, Haemonchus contortus third stage larvae in vitro, class mark appended to the Ex # in Table 3

SMILES | minimal effective concentration [1, 4] | HcL3 MED ([1]; Minimum Effective Dose, H. contortus third stage larvae, approximately 96 hours, listed as (4-141)) | DiL4 MED ([2]; Minimum Effective Dose, D. immitis L4 larvae motility, in vitro, listed as (4-141)) | DiMf/DiL4 ([2]; listed as (4-141)) | minimal effective concentration [3] | minimal effective concentration [1, 5] | minimal effective concentration [1, 6] | minimal effective concentration [2] | DiMf/DiL4 [2] | minimal effective concentration [1, 7]
Cc1cnsc1Cc1ccc(C[C@H]2OC(=O)[C@H](CC(C)C)N(C)C(=O)[C@@H](C)OC(=O)[C@H](CC(C)C)N(C)C(=O)[C@@H](Cc3ccc(Cc4sncc4C)cc3)OC(=O)[C@H](CC(C)C)N(C)C(=O)[C@@H](C)OC(=O)[C@H](CC(C)C)N(C)C2=O)cc1 [Example 4-141, (3S,6R,9S,12R,15S,18R,21S,24R)-3,9,15,21-tetraisobutyl-4,6,10,16,18,22-hexamethyl-12,24-bis(4-((4-methylisothiazol-5-yl)methyl)benzyl)-1,7,13,19-tetraoxa-4,10,16,22-tetraazacyclotetracosan-2,5,8,11,14,17,20,23-octaone] | 1 to 3.3 µM | 1.8 µM | 1 nM | 3 | 0.003 µM | – | – | – | – | –
CC(C)C[C@H]1C(=O)O[C@H](Cc2ccc(Cc3ccccc3)cc2)C(=O)N(C)[C@@H](CC(C)C)C(=O)O[C@H](C)C(=O)N(C)[C@@H](CC(C)C)C(=O)O[C@H](Cc2ccccc2)C(=O)N(C)[C@@H](CC(C)C)C(=O)O[C@H](C)C(=O)N1C [Example 2-1, (3S,6R,9S,12R,15S,18R,21S,24R)-6-benzyl-18-(4-benzylbenzyl)-3,9,15,21-tetraisobutyl-4,10,12,16,22,24-hexamethyl-1,7,13,19-tetraoxa-4,10,16,22-tetraazacyclotetracosan-2,5,8,11,14,17,20,23-octaone] | < 1 µM | – | – | – | 0.02 µM | 0.65 µM | ≤ 1 µM | 0.001 µM | 20 | –
CC(C)C[C@H]1C(=O)O[C@H](Cc2ccc(Cc3occc3C#N)cc2)C(=O)N(C)[C@@H](CC(C)C)C(=O)O[C@H](C)C(=O)N(C)[C@@H](CC(C)C)C(=O)O[C@H](Cc2ccccc2)C(=O)N(C)[C@@H](CC(C)C)C(=O)O[C@H](C)C(=O)N1C [Example 4-40, 2-(4-(((2R,5S,8R,11S,14R,17S,20R,23S)-14-benzyl-5,11,17,23-tetraisobutyl-4,8,10,16,20,22-hexamethyl-3,6,9,12,15,18,21,24-octaoxo-1,7,13,19-tetraoxa-4,10,16,22-tetraazacyclotetracosan-2-yl)methyl)benzyl)furan-3-carbonitrile] | < 1 µM | – | – | – | 0.0005 µM | 0.5 µM | ≤ 1 µM | 0.0002 µM | 2.5 | –
CC(C)C[C@H]1C(=O)O[C@H](Cc2ccc(Cc3cccnc3F)cc2)C(=O)N(C)[C@@H](CC(C)C)C(=O)O[C@H](C)C(=O)N(C)[C@@H](CC(C)C)C(=O)O[C@H](Cc2ccc(Cc3cccnc3F)cc2)C(=O)N(C)[C@@H](CC(C)C)C(=O)O[C@H](C)C(=O)N1C [Example 3-323, (3S,6R,9S,12R,15S,18R,21S,24R)-6,18-bis(4-((2-fluoropyridin-3-yl)methyl)benzyl)-3,9,15,21-tetraisobutyl-4,10,12,16,22,24-hexamethyl-1,7,13,19-tetraoxa-4,10,16,22-tetraazacyclotetracosan-2,5,8,11,14,17,20,23-octaone] | – | – | – | – | 0.001 µM | 0.3 µM | ≤ 1 µM | 0.0001 µM | 10 | < 1 µM
COc1ccncc1Cc1ccc(C[C@H]2OC(=O)[C@H](CC(C)C)N(C)C(=O)[C@@H](C)OC(=O)[C@H](CC(C)C)N(C)C(=O)[C@@H](Cc3ccc(Cc4cnccc4OC)cc3)OC(=O)[C@H](CC(C)C)N(C)C(=O)[C@@H](C)OC(=O)[C@H](CC(C)C)N(C)C2=O)cc1 [Example 3-282, (3S,6R,9S,12R,15S,18R,21S,24R)-3,9,15,21-tetraisobutyl-6,18-bis(4-((4-methoxypyridin-3-yl)methyl)benzyl)-4,10,12,16,22,24-hexamethyl-1,7,13,19-tetraoxa-4,10,16,22-tetraazacyclotetracosan-2,5,8,11,14,17,20,23-octaone] | – | – | – | – | 0.005 µM | 30 µM | – | 0.001 µM | 5 | –
CC(C)C[C@H]1C(=O)O[C@H](Cc2ccc(Cc3cccnc3OC(F)F)cc2)C(=O)N(C)[C@@H](CC(C)C)C(=O)O[C@H](C)C(=O)N(C)[C@@H](CC(C)C)C(=O)O[C@H](Cc2ccc(Cc3cccnc3OC(F)F)cc2)C(=O)N(C)[C@@H](CC(C)C)C(=O)O[C@H](C)C(=O)N1C [Example 3-297, (3S,6R,9S,12R,15S,18R,21S,24R)-6,18-bis(4-((2-(difluoromethoxy)pyridin-3-yl)methyl)benzyl)-3,9,15,21-tetraisobutyl-4,10,12,16,22,24-hexamethyl-1,7,13,19-tetraoxa-4,10,16,22-tetraazacyclotetracosan-2,5,8,11,14,17,20,23-octaone] | – | – | – | – | 0.03 µM | > 10 µM | – | 0.001 µM | 30 | –
CCOc1ncccc1Cc1ccc(C[C@H]2OC(=O)[C@H](CC(C)C)N(C)C(=O)[C@@H](C)OC(=O)[C@H](CC(C)C)N(C)C(=O)[C@@H](Cc3ccc(Cc4cccnc4OCC)cc3)OC(=O)[C@H](CC(C)C)N(C)C(=O)[C@@H](C)OC(=O)[C@H](CC(C)C)N(C)C2=O)cc1 [Example 3-165, (3S,6R,9S,12R,15S,18R,21S,24R)-6,18-bis(4-((2-ethoxypyridin-3-yl)methyl)benzyl)-3,9,15,21-tetraisobutyl-4,10,12,16,22,24-hexamethyl-1,7,13,19-tetraoxa-4,10,16,22-tetraazacyclotetracosan-2,5,8,11,14,17,20,23-octaone] | – | – | – | – | 0.2 µM | > 100 µM | – | 0.001 µM | 200 | –
CC(C)C[C@H]1C(=O)O[C@H](Cc2ccc(C(O)c3coc4ccccc34)cc2)C(=O)N(C)[C@@H](CC(C)C)C(=O)O[C@H](C)C(=O)N(C)[C@@H](CC(C)C)C(=O)O[C@H](Cc2ccccc2)C(=O)N(C)[C@@H](CC(C)C)C(=O)O[C@H](C)C(=O)N1C (stereo partly drawn) [Example 4-21, (3S,6R,9S,12R,15S,18R,21S,24R)-6-(4-(benzofuran-3-yl(hydroxy)methyl)benzyl)-18-benzyl-3,9,15,21-tetraisobutyl-4,10,12,16,22,24-hexamethyl-1,7,13,19-tetraoxa-4,10,16,22-tetraazacyclotetracosan-2,5,8,11,14,17,20,23-octaone] | – | – | – | – | 0.05 µM | > 10 µM | – | 0.001 µM | 50 | –
CC(C)C[C@H]1C(=O)O[C@H](Cc2ccc(Cc3ccnc(N4CCOCC4)c3)cc2)C(=O)N(C)[C@@H](CC(C)C)C(=O)O[C@H](C)C(=O)N(C)[C@@H](CC(C)C)C(=O)O[C@H](Cc2ccc(Cc3ccnc(N4CCOCC4)c3)cc2)C(=O)N(C)[C@@H](CC(C)C)C(=O)O[C@H](C)C(=O)N1C [Example 3-292, (3S,6R,9S,12R,15S,18R,21S,24R)-3,9,15,21-tetraisobutyl-4,6,10,16,18,22-hexamethyl-12,24-bis(4-((2-morpholinopyridin-4-yl)methyl)benzyl)-1,7,13,19-tetraoxa-4,10,16,22-tetraazacyclotetracosan-2,5,8,11,14,17,20,23-octaone] | – | – | – | – | 0.001 µM | 1.8 µM | – | 0.0003 µM | 3.3 | 1 to 3.3 µM
